What follows are compounds tested against Pol theta (1-899) (Homo sapiens (Human), UniProt O75417) (assay: Pol theta ATPase activity, NADH oxidation-coupled enzymatic assay). Conditions: Pol theta (1-899) 10 nM, ATP, dT50 ssDNA, absorbance 340 nm, 10-point dilution series; read-out: ATPase NADH coupling:Standard Screening:hPolQ IC50.
Format: biochemical
Method in brief: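 Pol theta (1-899), 10 nM, preincubated 15 min at RT with 10-point compound series in Tris pH 7.80/KCl/MgCl2 buffer, then given 100 μM ATP plus 300 nM dT50 ssDNA with PK/LDH-coupled NADH oxidation. A340 followed for 30 min; rate slopes fitted with a four-parameter model for IC50.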

Sequence of Pol theta (1-899) (O75417 1-899): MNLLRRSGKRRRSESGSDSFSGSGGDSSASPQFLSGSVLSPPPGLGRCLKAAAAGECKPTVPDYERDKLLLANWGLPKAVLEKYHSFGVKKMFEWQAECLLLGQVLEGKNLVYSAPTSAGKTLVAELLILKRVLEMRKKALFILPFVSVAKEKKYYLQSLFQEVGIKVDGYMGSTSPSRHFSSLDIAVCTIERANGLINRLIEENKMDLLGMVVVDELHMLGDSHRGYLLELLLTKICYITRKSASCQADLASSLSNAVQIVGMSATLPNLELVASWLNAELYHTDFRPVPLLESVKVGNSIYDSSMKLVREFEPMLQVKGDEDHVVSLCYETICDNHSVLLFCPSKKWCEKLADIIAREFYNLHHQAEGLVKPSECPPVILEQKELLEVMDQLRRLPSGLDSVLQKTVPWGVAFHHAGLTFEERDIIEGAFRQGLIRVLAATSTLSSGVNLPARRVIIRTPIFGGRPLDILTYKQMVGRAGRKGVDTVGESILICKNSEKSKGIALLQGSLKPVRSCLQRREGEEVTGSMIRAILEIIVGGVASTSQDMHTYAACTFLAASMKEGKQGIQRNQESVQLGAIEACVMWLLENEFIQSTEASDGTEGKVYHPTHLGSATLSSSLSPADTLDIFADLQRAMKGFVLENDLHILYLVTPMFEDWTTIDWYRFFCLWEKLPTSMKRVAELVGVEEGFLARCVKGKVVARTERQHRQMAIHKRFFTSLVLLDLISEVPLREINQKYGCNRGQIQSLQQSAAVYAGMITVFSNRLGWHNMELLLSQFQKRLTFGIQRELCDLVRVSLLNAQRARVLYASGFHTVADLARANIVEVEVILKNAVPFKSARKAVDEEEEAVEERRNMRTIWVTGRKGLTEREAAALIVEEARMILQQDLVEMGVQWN

| SMILES | IC50 [µM] |
| --- | --- |
| COc1cccc(OC)c1-c1ccncc1C(=O)Nc1nnc(OCc2ccc(Cl)cc2)s1 [Example 128, N-(5-((4-chlorobenzyl)oxy)-1,3,4-thiadiazol-2-yl)-4-(2,6-dimethoxyphenyl)nicotinamide] | 0.5 to 1 |
| COc1ncccc1-c1ccncc1C(=O)Nc1nnc(OCc2ccc(Cl)cc2)s1 [Example 129, N-(5-((4-chlorobenzyl)oxy)-1,3,4-thiadiazol-2-yl)-2-methoxy-[3,4′-bipyridine]-3′-carboxamide] | 0.2 to 0.5 |
| COc1ccncc1-c1cnccc1C(=O)Nc1nnc(OCc2ccc(Cl)cc2)s1 [Example 133, N-(5-((4-chlorobenzyl)oxy)-1,3,4-thiadiazol-2-yl)-4′-methoxy-[3,3′-bipyridine]-4-carboxamide] | 0.5 to 1 |
| COc1ccccc1-c1cc(C)ncc1C(=O)Nc1nnc(OCc2ccc(Cl)cc2)s1 [Example 138, N-[5-[(4-chlorophenyl)methoxy]-1,3,4-thiadiazol-2-yl]-4-(2-methoxyphenyl)-6-methylpyridine-3-carboxamide] | ≤ 0.2 |
| CN1CCOc2c(-c3cnccc3C(=O)Nc3nnc(OCc4ccc(Cl)cc4)s3)cccc21 [Example 139, N-[5-[(4-chlorophenyl)methoxy]-1,3,4-thiadiazol-2-yl]-3-(4-methyl-2,3-dihydro-1,4-benzoxazin-8-yl)pyridine-4-carboxamide] | ≤ 0.2 |
| Cc1n[nH]c(C)c1-c1cnccc1C(=O)Nc1nnc(OCc2ccc(Cl)cc2)s1 [Example 140, N-[5-[(4-chlorophenyl)methoxy]-1,3,4-thiadiazol-2-yl]-3-(3,5-dimethyl-1H-pyrazol-4-yl)pyridine-4-carboxamide] | ≤ 0.2 |
| COc1ccccc1-c1cnccc1C(=O)Nc1nnc(OCc2ccc(C3(C#N)CC3)cc2)s1 [Example 141, N-(5-[[4-(1-cyanocyclopropyl)phenyl]methoxy]-1,3,4-thiadiazol-2-yl)-3-(2-methoxyphenyl)pyridine-4-carboxamide] | ≤ 0.2 |
| O=C(Nc1nnc(OCc2ccc(Cl)cc2)s1)c1ccncc1N1CCCn2nccc21 [Example 142, N-[5-[(4-chlorophenyl)methoxy]-1,3,4-thiadiazol-2-yl]-3-[5H,6H,7H-pyrazolo[1,5-a]pyrimidin-4-yl]pyridine-4-carboxamide] | ≤ 0.2 |
| O=C(Nc1nnc(OCc2ccc(Cl)cc2)s1)c1ccncc1-c1c(F)cccc1OC1COC1 [Example 143, N-(5-((4-chlorobenzyl)oxy)-1,3,4-thiadiazol-2-yl)-3-(2-fluoro-6-(oxetan-3-yloxy)phenyl)isonicotinamide] | ≤ 0.2 |
| C[C@@H]1COC[C@@H](C)N1c1cnccc1C(=O)Nc1nnc(OCc2ccc(Cl)cc2)s1 [Example 144, N-(5-((4-chlorobenzyl)oxy)-1,3,4-thiadiazol-2-yl)-3-((3R,5R)-3,5-dimethylmorpholino)isonicotinamide] | ≤ 0.2 |
| COc1ccccc1-c1cnccc1C(=O)Nc1nnc(OCc2cccc3[nH]cnc23)s1 [Example 145, N-[5-(1H-1,3-benzodiazol-4-ylmethoxy)-1,3,4-thiadiazol-2-yl]-3-(2-methoxyphenyl)pyridine-4-carboxamide] | ≤ 0.2 |
| COc1ccccc1-c1cnccc1C(=O)Nc1nnc(OCc2ccc(Cl)c3c2cnn3C)s1 [Example 146, N-[5-[(7-chloro-1-methylindazol-4-yl)methoxy]-1,3,4-thiadiazol-2-yl]-3-(2-methoxyphenyl)pyridine-4-carboxamide] | ≤ 0.2 |
| O=C(Nc1nnc(OCc2ccc(Cl)cc2)s1)c1cc(C#CCO)ncc1-c1ccccc1OC(F)F [Example 147, N-[5-[(4-chlorophenyl)methoxy]-1,3,4-thiadiazol-2-yl]-5-[2-(difluoromethoxy)phenyl]-2-(3-hydroxyprop-1-yn-1-yl)pyridine-4-carboxamide] | ≤ 0.2 |
| COc1ccccc1-c1cnc(F)cc1C(=O)Nc1nnc(OCc2ccc(Cl)cc2)s1 [Example 148, N-(5-((4-chlorobenzyl)oxy)-1,3,4-thiadiazol-2-yl)-2-fluoro-5-(2-methoxyphenyl)isonicotinamide] | ≤ 0.2 |
| COc1ccccc1-n1cncc1C(=O)Nc1nnc(OCc2ccc(C3CC3)cc2)s1 [Example 149, N-(5-((4-cyclopropylbenzyl)oxy)-1,3,4-thiadiazol-2-yl)-1-(2-methoxyphenyl)-1H-imidazole-5-carboxamide] | ≤ 0.2 |
| O=C(Nc1nnc(OCc2ccc(Cl)cc2)s1)c1cccnc1-c1ccccc1Cl [Example 150, N-(5-((4-chlorobenzyl)oxy)-1,3,4-thiadiazol-2-yl)-2-(2-chlorophenyl)nicotinamide] | 0.2 to 0.5 |
| COc1ccccc1-c1cnc(C#N)cc1C(=O)Nc1nnc(OCc2ccc(Cl)cc2)s1 [Example 151, N-(5-((4-chlorobenzyl)oxy)-1,3,4-thiadiazol-2-yl)-2-cyano-5-(2-methoxyphenyl)isonicotinamide] | ≤ 0.2 |
| COc1ccccc1-c1cc(C(=O)O)ncc1C(=O)Nc1nnc(OCc2ccc(Br)cc2)s1 [Example 152, 5-([5-[(4-bromophenyl)methoxy]-1,3,4-thiadiazol-2-yl]carbamoyl)-4-(2-methoxyphenyl)pyridine-2-carboxylic acid] | ≤ 0.2 |
| COc1ccccc1-c1ccncc1C(=O)Nc1nnc(OCc2ccc(Br)cc2)s1 [Example 153, N-[5-[(4-bromophenyl)methoxy]-1,3,4-thiadiazol-2-yl]-4-(2-methoxyphenyl)pyridine-3-carboxamide] | ≤ 0.2 |
| COc1ccccc1-c1cc(C#N)ncc1C(=O)Nc1nnc(OCCC2CC2)s1 [Example 154, 6-cyano-N-(5-(2-cyclopropylethoxy)-1,3,4-thiadiazol-2-yl)-4-(2-methoxyphenyl)nicotinamide] | ≤ 0.2 |
| COc1cc(F)ccc1-c1ccncc1C(=O)Nc1nnc(OCc2ccc(Cl)cc2)s1 [Example 155, N-[5-[(4-chlorophenyl)methoxy]-1,3,4-thiadiazol-2-yl]-4-(4-fluoro-2-methoxyphenyl)pyridine-3-carboxamide] | ≤ 0.2 |
| COc1ccccc1-c1cc(C(F)(F)F)ncc1C(=O)Nc1nnc(OCc2ccc(Cl)cc2)s1 [Example 156, N-[5-[(4-chlorophenyl)methoxy]-1,3,4-thiadiazol-2-yl]-4-(2-methoxyphenyl)-6-(trifluoromethyl)pyridine-3-carboxamide] | ≤ 0.2 |
| COc1ccccc1-c1cnccc1C(=O)Nc1nnc(OCc2cccc(Cl)c2)s1 [Example 157, N-(5-((3-chlorobenzyl)oxy)-1,3,4-thiadiazol-2-yl)-3-(2-methoxyphenyl)isonicotinamide] | ≤ 0.2 |

Now from value to compound:

| IC50 [µM] | SMILES |
| --- | --- |
| ≤ 0.2 | COc1ccc(C#N)cc1-c1cnccc1C(=O)Nc1nnc(OCc2ccc(Cl)cc2)s1 [Example 123, N-(5-((4-chlorobenzyl)oxy)-1,3,4-thiadiazol-2-yl)-3-(5-cyano-2-methoxyphenyl)isonicotinamide] |
| ≤ 0.2 | COc1cccc(F)c1-c1cnccc1C(=O)Nc1nnc(OCc2ccc(Cl)cc2)s1 [Example 124, N-(5-((4-chlorobenzyl)oxy)-1,3,4-thiadiazol-2-yl)-3-(2-fluoro-6-methoxyphenyl)isonicotinamide] |
| ≤ 0.2 | COc1cccc(Cl)c1-c1cnccc1C(=O)Nc1nnc(OCc2ccc(Cl)cc2)s1 [Example 125, 3-(2-chloro-6-methoxyphenyl)-N-(5-((4-chlorobenzyl)oxy)-1,3,4-thiadiazol-2-yl)isonicotinamide] |
| ≤ 0.2 | N#Cc1ccccc1-c1cnccc1C(=O)Nc1nnc(OCc2ccc(Cl)cc2)s1 [Example 126, N-(5-((4-chlorobenzyl)oxy)-1,3,4-thiadiazol-2-yl)-3-(2-cyanophenyl)isonicotinamide] |
| ≤ 0.2 | COc1cc(C#N)ccc1-c1cnccc1C(=O)Nc1nnc(OCc2ccc(Cl)cc2)s1 [Example 127, N-(5-((4-chlorobenzyl)oxy)-1,3,4-thiadiazol-2-yl)-3-(4-cyano-2-methoxyphenyl)isonicotinamide] |
| ≤ 0.2 | O=C(Nc1nnc(OCc2ccc(Cl)cc2)s1)c1cnccc1-c1ccccc1OC(F)(F)F [Example 130, N-(5-((4-chlorobenzyl)oxy)-1,3,4-thiadiazol-2-yl)-4-(2-(trifluoromethoxy)phenyl)nicotinamide] |
| ≤ 0.2 | COc1cnccc1-c1cnccc1C(=O)Nc1nnc(OCc2ccc(Cl)cc2)s1 [Example 131, N-(5-((4-chlorobenzyl)oxy)-1,3,4-thiadiazol-2-yl)-3′-methoxy-[3,4′-bipyridine]-4-carboxamide] |
| ≤ 0.2 | O=C(Nc1nnc(OCc2ccc(Cl)cc2)s1)c1cnccc1-c1ccccc1C(F)(F)F [Example 132, N-(5-((4-chlorobenzyl)oxy)-1,3,4-thiadiazol-2-yl)-4-(2-(trifluoromethyl)phenyl)nicotinamide] |
| ≤ 0.2 | O=C(Nc1nnc(OCc2ccc(Cl)cc2)s1)c1ccncc1-c1ccccc1OC1COC1 [Example 134, N-[5-[(4-chlorophenyl)methoxy]-1,3,4-thiadiazol-2-yl]-3-[2-(oxetan-3-yloxy)phenyl]pyridine-4-carboxamide] |
| ≤ 0.2 | CCc1ccccc1-c1cnccc1C(=O)Nc1nnc(OCc2ccc(Cl)cc2)s1 [Example 135, N-[5-[(4-chlorophenyl)methoxy]-1,3,4-thiadiazol-2-yl]-3-(2-ethylphenyl)pyridine-4-carboxamide] |
| ≤ 0.2 | O=C(Nc1nnc(OCc2ccc(Cl)cc2)s1)c1ccncc1-c1cccc2c1OCCN2 [Example 136, N-[5-[(4-chlorophenyl)methoxy]-1,3,4-thiadiazol-2-yl]-3-(3,4-dihydro-2H-1,4-benzoxazin-8-yl)pyridine-4-carboxamide] |
| ≤ 0.2 | COc1ccccc1-c1cnc(CC#N)cc1C(=O)Nc1nnc(OCc2ccc(Cl)cc2)s1 [Example 137, N-[5-[(4-chlorophenyl)methoxy]-1,3,4-thiadiazol-2-yl]-2-(cyanomethyl)-5-(2-methoxyphenyl)pyridine-4-carboxamide] |
